Measured values as given in ChEMBL document CHEMBL4665854, “Backbone Cyclization Turns a Venom Peptide into a Stable and Equipotent Ligand at Both Muscle and Neuronal Nicotinic Receptors” (J Med Chem, 2020).
Calls of active or inactive are those of the source. The calls are words filed in the database; no cut-off is given here. Positions of bridges follow the written chain, without caps; N, C: chain ends. Residues, ends and D or L forms follow the SMILES beside them.

What was measured:
[1] = Half life in human serum at 30 uM by LC-MS analysis; assay type: ADME, cell-free
[2] = system: Phrenic nerve-diaphragm muscle; experiment: Inhibition of muscle contraction in Swiss mouse isolated phrenic nerve hemidiaphragm muscle preparation assessed as reduction of 0.1 Hz stimulation-induced isometric twitch force incubated for 20 to 25 mins; assay type: functional, tissue-based
[3] = system: Phrenic nerve-diaphragm muscle; experiment: Reduction in fading of train-of four repetitive stimulation pattern in Swiss mouse isolated phrenic nerve hemidiaphragm muscle preparation at 20 nM; assay type: functional, tissue-based
[4] = system: Danio rerio; experiment: Induction of paralysis in adult Zebrafish assessed as induction of rapid flaccid skeletal muscle paralysis dosed via injection measured after 10 mins; assay type: functional, organism-based
[5] = biological target: Neuronal acetylcholine receptor; alpha4/beta4 (Rattus norvegicus) (UniProt P09483+P12392); experiment: Inhibition of rat alpha4beta4 expressed in Xenopus laevis oocytes assessed as acetylcholine-induced channel current response at 10 uM at -70 mV holding potential by two-electrode voltage-clamp assay relative to control; assay type: cell-based; design: scale not given: the % may be the effect or the level left; details: Oocyte
[6] = biological target: Nicotinic acetylcholine receptor alpha-1/beta-1/delta/epsilon (Rattus norvegicus, UniProt P09660+P25108+P25109+P25110); experiment: Inhibition of rat alpha1beta1epsilondelta expressed in Xenopus laevis oocytes assessed as inhibition of acetylcholine-induced channel current response at -70 mV holding potential by two-electrode voltage-clamp assay relative to control; assay type: cell-based, Oocyte
[7] = biological target: Neuronal acetylcholine receptor; alpha2/beta4 (Rattus norvegicus) (UniProt P12389+P12392); experiment: Inhibition of rat alpha2beta4 expressed in Xenopus laevis oocytes assessed as acetylcholine-induced channel current response at 10 uM at -70 mV holding potential by two-electrode voltage-clamp assay relative to control; assay type: cell-based; design: scale not given: the % may be the effect or the level left; details: Oocyte
[8] = system: Phrenic nerve-diaphragm muscle; experiment: Inhibition of muscle contraction in Swiss mouse isolated phrenic nerve hemidiaphragm muscle preparation assessed as reduction of 0.1 Hz stimulation-induced isometric twitch force by measuring time required to block 50% of nerve-evoked muscle contraction; assay type: functional
[9] = species on record: Danio rerio; experiment: Induction of paralysis in Zebrafish assessed as inhibition of larvae movement movement at 100 uM added into the water and measured over 1 hr by larvae movement tracking analysis relative to control; assay type: functional
[10] = biological target: CHRNA1/CHRNB1/CHRNG/CHRND (Rattus norvegicus, UniProt P18916+P25108+P25109+P25110); experiment: Inhibition of rat (alpha1)2betagammadelta expressed in Xenopus laevis oocytes assessed as inhibition of acetylcholine-induced channel current response at -70 mV holding potential by two-electrode voltage-clamp assay; assay type: cell-based, Oocyte
Sequence of CHRNA1/CHRNB1/CHRNG/CHRND (P25109 whole entry): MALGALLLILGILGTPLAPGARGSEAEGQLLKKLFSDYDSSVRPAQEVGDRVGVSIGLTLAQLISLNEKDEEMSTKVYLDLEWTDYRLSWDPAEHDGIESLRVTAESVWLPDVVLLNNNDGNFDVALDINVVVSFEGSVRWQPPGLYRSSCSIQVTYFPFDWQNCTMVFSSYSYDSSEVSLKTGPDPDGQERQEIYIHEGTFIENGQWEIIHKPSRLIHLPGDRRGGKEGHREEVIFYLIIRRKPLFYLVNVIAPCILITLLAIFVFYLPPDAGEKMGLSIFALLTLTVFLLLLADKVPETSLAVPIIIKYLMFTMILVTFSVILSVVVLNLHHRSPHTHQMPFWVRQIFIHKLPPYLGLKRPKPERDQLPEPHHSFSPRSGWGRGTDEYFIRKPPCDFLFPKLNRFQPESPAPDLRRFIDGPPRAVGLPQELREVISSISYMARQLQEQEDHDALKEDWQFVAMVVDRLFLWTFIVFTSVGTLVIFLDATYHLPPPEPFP
Sequence of CHRNA1/CHRNB1/CHRNG/CHRND (P25108 whole entry): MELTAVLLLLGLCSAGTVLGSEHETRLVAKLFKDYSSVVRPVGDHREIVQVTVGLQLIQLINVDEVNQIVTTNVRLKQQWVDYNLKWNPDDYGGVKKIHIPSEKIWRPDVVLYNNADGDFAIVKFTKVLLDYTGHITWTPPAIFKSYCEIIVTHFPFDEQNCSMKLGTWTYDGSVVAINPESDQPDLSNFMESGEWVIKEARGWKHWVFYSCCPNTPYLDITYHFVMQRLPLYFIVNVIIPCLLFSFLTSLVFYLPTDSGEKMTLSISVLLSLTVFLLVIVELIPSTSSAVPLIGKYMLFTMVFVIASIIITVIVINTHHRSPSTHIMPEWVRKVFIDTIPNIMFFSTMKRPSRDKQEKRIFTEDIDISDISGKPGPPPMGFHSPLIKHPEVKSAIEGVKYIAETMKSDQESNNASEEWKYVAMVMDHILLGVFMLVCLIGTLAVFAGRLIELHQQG
Sequence of CHRNA1/CHRNB1/CHRNG/CHRND (P25110 whole entry): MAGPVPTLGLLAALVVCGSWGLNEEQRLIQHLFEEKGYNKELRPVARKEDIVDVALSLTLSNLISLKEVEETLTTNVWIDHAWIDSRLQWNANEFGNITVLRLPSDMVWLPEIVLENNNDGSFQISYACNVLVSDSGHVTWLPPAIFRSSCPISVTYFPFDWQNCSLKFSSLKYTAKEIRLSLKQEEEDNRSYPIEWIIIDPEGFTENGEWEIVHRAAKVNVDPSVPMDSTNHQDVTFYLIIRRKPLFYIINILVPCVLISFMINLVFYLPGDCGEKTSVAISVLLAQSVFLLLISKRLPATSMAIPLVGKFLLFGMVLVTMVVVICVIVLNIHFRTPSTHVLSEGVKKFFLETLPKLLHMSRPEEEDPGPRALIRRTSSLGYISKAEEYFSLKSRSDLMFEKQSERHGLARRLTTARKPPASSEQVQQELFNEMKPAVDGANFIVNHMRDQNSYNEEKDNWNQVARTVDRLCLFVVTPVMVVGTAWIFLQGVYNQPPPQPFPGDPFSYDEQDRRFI
Sequence of CHRNA1/CHRNB1/CHRNG/CHRND (P18916 whole entry): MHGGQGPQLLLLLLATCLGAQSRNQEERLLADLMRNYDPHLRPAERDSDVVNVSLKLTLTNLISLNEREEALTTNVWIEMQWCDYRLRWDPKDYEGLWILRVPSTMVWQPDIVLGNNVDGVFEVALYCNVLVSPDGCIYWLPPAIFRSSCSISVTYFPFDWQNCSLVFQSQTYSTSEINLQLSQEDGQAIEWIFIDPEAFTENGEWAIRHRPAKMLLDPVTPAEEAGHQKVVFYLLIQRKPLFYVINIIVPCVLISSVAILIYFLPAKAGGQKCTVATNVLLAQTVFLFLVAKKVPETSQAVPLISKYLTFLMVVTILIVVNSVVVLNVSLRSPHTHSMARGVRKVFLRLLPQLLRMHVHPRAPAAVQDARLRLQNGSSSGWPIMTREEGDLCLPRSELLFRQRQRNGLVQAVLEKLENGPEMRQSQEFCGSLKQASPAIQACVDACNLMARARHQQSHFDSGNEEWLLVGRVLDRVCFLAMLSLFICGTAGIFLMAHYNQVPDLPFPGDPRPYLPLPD

[11] = system: Phrenic nerve-diaphragm muscle; experiment: Inhibition of muscle contraction in Swiss mouse isolated phrenic nerve hemidiaphragm muscle preparation assessed as reduction of 0.1 Hz stimulation-induced isometric twitch force by measuring time required for 40% recovery of nerve-evoked muscle contraction; assay type: functional
[12] = biological target: T1, Neuronal acetylcholine receptor; alpha3/beta2 (Rattus norvegicus) (UniProt P04757+P12390); experiment: Competitive inhibition of alpha-conotoxin MII binding to rat alpha3beta2 expressed in Xenopus laevis oocytes at 100 nM; assay type: cell-based; details: Oocyte
[13] = system: Phrenic nerve-diaphragm muscle; experiment: (§1) Inhibition of muscle contraction in Swiss mouse isolated phrenic nerve hemidiaphragm muscle preparation assessed as reduction of twitch tension-time integrals of 0.1 Hz stimulation-induced nerve contraction at 16 nM incubated for 30 mins followed addition of 10 uM addition of 3,4-DAP for 27 mins by relative to control; assay type: functional, tissue-based; details: time 57.0 min
[14] = biological target: T2, CHRNA1/CHRNB1/CHRNG/CHRND (Rattus norvegicus) (UniProt P25109+P25108+P25110+P18916); experiment: Inhibition of fetal rat (alpha1)2beta1gammadelta expressed in Xenopus laevis oocytes assessed as dissociation rate constant for inhibition of acetylcholine-induced channel current response at 100 nM at -70 mV holding potential by two-electrode voltage-clamp assay; assay type: cell-based; details: Oocyte
[15] = biological target: Neuronal acetylcholine receptor; alpha9/alpha10 (Homo sapiens) (UniProt Q9UGM1+Q9GZZ6); experiment: Inhibition of human alpha9alpha10 expressed in Xenopus laevis oocytes assessed as acetylcholine-induced channel current response at 10 uM at -70 mV holding potential by two-electrode voltage-clamp assay relative to control; assay type: cell-based; design: scale not given: the % may be the effect or the level left; details: Oocyte
[16] = biological target: T1, Neuronal acetylcholine receptor; alpha3/beta2 (Rattus norvegicus); experiment: Inhibition of rat alpha3beta2 expressed in Xenopus laevis oocytes assessed as wash-out time needed for recovery of ACh-induced current responses at -70 mV holding potential by two-electrode voltage-clamp assay; assay type: cell-based; details: Oocyte
[17] = biological target: Neuronal acetylcholine receptor; alpha3/beta4 (Rattus norvegicus) (UniProt P04757+P12392); experiment: Inhibition of rat alpha3beta4 expressed in Xenopus laevis oocytes assessed as acetylcholine-induced channel current response at 10 uM at -70 mV holding potential by two-electrode voltage-clamp assay relative to control; assay type: cell-based; design: scale not given: the % may be the effect or the level left; details: Oocyte
[18] = system: Phrenic nerve-diaphragm muscle; experiment: Induction of fading of train-of four repetitive stimulation pattern in Swiss mouse isolated phrenic nerve hemidiaphragm muscle preparation measured at 76% neuromuscular block; assay type: functional, tissue-based
[19] = biological target: Nicotinic acetylcholine receptor alpha6/alpha3/beta2/beta3 (Rattus norvegicus, UniProt P04757+P12390+P12391+P43143); experiment: Inhibition of rat alpha6alpha3beta2beta3 expressed in Xenopus laevis oocytes assessed as inhibition of acetylcholine-induced channel current response at -70 mV holding potential by two-electrode voltage-clamp assay relative to control; assay type: cell-based, Oocyte
Sequence of Nicotinic acetylcholine receptor alpha6/alpha3/beta2/beta3 (P04757 whole entry): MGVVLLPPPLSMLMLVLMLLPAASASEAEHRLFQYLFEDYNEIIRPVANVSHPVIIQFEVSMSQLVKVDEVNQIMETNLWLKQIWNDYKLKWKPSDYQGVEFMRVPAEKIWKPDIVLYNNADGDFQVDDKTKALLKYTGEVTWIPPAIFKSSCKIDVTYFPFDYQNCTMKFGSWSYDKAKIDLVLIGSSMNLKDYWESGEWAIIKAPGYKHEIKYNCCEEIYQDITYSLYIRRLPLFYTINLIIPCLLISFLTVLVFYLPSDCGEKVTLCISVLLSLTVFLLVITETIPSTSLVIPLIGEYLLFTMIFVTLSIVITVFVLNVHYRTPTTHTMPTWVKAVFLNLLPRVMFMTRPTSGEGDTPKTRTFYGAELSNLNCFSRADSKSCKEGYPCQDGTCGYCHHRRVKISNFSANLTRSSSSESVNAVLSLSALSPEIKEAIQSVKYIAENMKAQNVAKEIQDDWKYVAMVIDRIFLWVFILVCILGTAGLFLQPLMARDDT
Sequence of Nicotinic acetylcholine receptor alpha6/alpha3/beta2/beta3 (P12390 whole entry): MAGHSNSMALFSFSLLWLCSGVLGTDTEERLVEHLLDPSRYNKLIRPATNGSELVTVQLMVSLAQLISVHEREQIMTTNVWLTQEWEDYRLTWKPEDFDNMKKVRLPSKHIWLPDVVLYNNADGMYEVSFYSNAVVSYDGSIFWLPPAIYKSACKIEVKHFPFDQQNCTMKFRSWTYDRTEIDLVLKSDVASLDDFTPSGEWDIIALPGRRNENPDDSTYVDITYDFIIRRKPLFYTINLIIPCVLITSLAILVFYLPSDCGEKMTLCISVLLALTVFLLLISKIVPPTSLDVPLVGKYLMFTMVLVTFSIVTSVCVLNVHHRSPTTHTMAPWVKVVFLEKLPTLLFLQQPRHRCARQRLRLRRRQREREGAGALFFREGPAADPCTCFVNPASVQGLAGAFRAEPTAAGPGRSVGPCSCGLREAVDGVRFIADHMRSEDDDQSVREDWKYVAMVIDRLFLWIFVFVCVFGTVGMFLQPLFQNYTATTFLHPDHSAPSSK
Sequence of Nicotinic acetylcholine receptor alpha6/alpha3/beta2/beta3 (P12391 whole entry): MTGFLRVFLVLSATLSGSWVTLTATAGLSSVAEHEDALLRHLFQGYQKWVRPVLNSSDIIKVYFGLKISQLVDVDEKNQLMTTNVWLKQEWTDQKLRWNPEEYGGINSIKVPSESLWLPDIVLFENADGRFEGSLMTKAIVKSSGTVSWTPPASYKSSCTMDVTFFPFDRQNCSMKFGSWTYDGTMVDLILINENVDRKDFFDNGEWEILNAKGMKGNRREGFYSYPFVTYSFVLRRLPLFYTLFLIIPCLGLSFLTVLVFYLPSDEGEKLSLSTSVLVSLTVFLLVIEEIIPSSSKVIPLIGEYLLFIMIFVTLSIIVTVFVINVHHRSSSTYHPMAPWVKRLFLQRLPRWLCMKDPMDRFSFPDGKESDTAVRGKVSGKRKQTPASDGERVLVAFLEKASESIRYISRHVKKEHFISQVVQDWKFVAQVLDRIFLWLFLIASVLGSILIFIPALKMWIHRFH
Sequence of Nicotinic acetylcholine receptor alpha6/alpha3/beta2/beta3 (P43143 whole entry): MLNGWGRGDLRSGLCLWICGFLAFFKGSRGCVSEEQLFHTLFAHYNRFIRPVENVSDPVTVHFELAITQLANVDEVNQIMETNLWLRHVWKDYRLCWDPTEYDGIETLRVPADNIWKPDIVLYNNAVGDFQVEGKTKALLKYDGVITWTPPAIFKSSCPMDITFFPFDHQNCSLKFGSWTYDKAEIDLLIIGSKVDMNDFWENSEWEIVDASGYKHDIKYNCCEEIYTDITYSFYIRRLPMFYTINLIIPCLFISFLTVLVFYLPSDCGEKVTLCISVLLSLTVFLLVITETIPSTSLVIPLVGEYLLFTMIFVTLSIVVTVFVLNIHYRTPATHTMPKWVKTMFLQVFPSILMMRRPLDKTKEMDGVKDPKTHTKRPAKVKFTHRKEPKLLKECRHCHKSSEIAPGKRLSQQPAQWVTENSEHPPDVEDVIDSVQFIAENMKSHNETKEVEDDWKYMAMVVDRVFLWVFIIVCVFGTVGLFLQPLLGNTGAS

[20] = biological target: Neuronal acetylcholine receptor; alpha4/beta2 (Rattus norvegicus) (UniProt P09483+P12390); experiment: Inhibition of rat alpha4beta2 expressed in Xenopus laevis oocytes assessed as acetylcholine-induced channel current response at 10 uM at -70 mV holding potential by two-electrode voltage-clamp assay relative to control; assay type: cell-based; design: scale not given: the % may be the effect or the level left; details: Oocyte
[21] = system: Phrenic nerve-diaphragm muscle; experiment: as §1, with “peak amplitude” for “twitch tension-time integrals”; assay type: functional, tissue-based; details: time 57.0 min
[22] = biological target: Neuronal acetylcholine receptor; alpha3/beta2 (Rattus norvegicus, UniProt P04757+P12390); experiment: Inhibition of rat alpha3beta2 expressed in Xenopus laevis oocytes assessed as inhibition of acetylcholine-induced channel current response at -70 mV holding potential by two-electrode voltage-clamp assay; assay type: cell-based, Oocyte
Sequence of Neuronal acetylcholine receptor; alpha3/beta2 (P04757 whole entry): as the sequence (P04757 whole entry) above
Sequence of Neuronal acetylcholine receptor; alpha3/beta2 (P12390 whole entry): as the sequence (P12390 whole entry) above

[23] = biological target: Neuronal acetylcholine receptor; alpha2/beta2 (Rattus norvegicus) (UniProt P12389+P12390); experiment: Inhibition of rat alpha2beta2 expressed in Xenopus laevis oocytes assessed as acetylcholine-induced channel current response at 10 uM at -70 mV holding potential by two-electrode voltage-clamp assay relative to control; assay type: cell-based; design: scale not given: the % may be the effect or the level left; details: Oocyte
[24] = biological target: T2, CHRNA1/CHRNB1/CHRNG/CHRND (Rattus norvegicus); experiment: Inhibition of rat (alpha1)2betagammadelta expressed in Xenopus laevis oocytes assessed as dissociation rate constant for inhibition of acetylcholine-induced channel current response at -70 mV holding potential by two-electrode voltage-clamp assay; assay type: cell-based; details: Oocyte
[25] = biological target: Neuronal acetylcholine receptor subunit alpha-7 (Homo sapiens) (UniProt P36544); experiment: Inhibition of human alpha7expressed in Xenopus laevis oocytes assessed as acetylcholine-induced channel current response at 10 uM at -70 mV holding potential by two-electrode voltage-clamp assay relative to control; assay type: cell-based; design: scale not given: the % may be the effect or the level left; details: Oocyte
Sequence of Neuronal acetylcholine receptor subunit alpha-7 (Homo sapiens) (P36544 whole entry): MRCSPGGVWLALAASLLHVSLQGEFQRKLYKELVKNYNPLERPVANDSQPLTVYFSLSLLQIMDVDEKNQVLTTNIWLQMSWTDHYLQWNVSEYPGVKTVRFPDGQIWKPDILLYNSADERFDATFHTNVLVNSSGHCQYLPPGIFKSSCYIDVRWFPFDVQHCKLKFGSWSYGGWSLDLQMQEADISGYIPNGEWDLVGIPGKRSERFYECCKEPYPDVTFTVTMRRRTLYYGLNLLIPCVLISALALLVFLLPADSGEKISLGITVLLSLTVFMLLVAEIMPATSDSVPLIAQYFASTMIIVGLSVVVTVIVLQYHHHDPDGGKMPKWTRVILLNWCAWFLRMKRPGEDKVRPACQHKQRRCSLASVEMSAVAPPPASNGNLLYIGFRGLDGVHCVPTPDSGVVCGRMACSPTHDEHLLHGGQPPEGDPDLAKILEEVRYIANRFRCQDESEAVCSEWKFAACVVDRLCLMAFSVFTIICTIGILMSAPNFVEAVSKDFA

[26] = biological target: Nicotinic acetylcholine receptor alpha-1/beta-1/delta/epsilon (Homo sapiens) (UniProt P02708+P11230+Q07001+Q04844); experiment: Inhibition of adult human (alpha1)2beta1epsilondelta expressed in Xenopus laevis oocytes assessed as dissociation rate constant for inhibition of acetylcholine-induced channel current response at 1 nM at -70 mV holding potential by two-electrode voltage-clamp assay relative to control; assay type: cell-based; details: Oocyte
[27] = system: Phrenic nerve-diaphragm muscle; experiment: Inhibition of muscle contraction in Swiss mouse isolated phrenic nerve hemidiaphragm muscle preparation assessed as reduction of peak amplitude of 0.1 Hz stimulation-induced nerve contraction at 16 nM incubated for 30 mins relative to control; assay type: functional; details: 0.5 h
[28] = Mus musculus, Swiss, Phrenic nerve-diaphragm muscle

SMILES	half-life at 30 µM [1] [h]	Activity [3]	Activity [4]	inhibition in vivo at 100 µM [9] [%]	IC50 [2, 28] [nM]	IC50 [10] [nM]	IC50 [22] [nM]	K [24] [min⁻¹]	IC50 ([4]; Danio rerio, 10 min) [nM]	other results
C[C@@H]1NC(=O)[C@@H]2CCCN2C(=O)[C@H](Cc2c[nH]cn2)NC(=O)[C@@H]2CSSC[C@@H](C(N)=O)NC(=O)[C@H](CO)NC(=O)[C@H](Cc3ccccc3)NC(=O)[C@H](Cc3c[nH]cn3)NC(=O)[C@H](CCCCN)NC(=O)CNC(=O)[C@H](CSSC[C@H](NC(=O)[C@H](CCCNC(=N)N)NC(=O)CNC(=O)[C@@H](N)CC(N)=O)C(=O)N2)NC1=O (H-NGRCCHPACGKHFSC-NH2; disulfide 4-9, 5-15)	1.33	inactive	Dose-dependent effect	–	–	–	–	–	–	IC50 [2]: 8.98 nM; IC50 [4]: 6900 nM
C[C@@H]1NC(=O)[C@H](C)NC(=O)[C@@H]2CSSC[C@@H]3NC(=O)[C@H](CSSC[C@H](NC(=O)[C@H](C)NC(=O)[C@@H]4CCCN4C(=O)[C@H](Cc4c[nH]cn4)NC3=O)C(=O)NCC(=O)N[C@@H](CCCCN)C(=O)N[C@@H](Cc3c[nH]cn3)C(=O)N[C@@H](Cc3ccccc3)C(=O)N[C@@H](CO)C(=O)N2)NC(=O)[C@H](CCCNC(=N)N)NC(=O)CNC(=O)[C@H](CC(N)=O)NC(=O)CNC1=O (cyclo(AAGNGRCCHPACGKHFSC); disulfide 7-12, 8-18)	5.33	inactive	Dose-dependent effect	20.5	8.7	3.57	1.3	0.03	57900	Activity [5]: > 80%; IC50 [6]: 0.184 nM; Activity [7]: > 80%; Time [8]: 19 min; Time [11]: 32.6 min; inhibition [12]: Active; inhibition [13]: inactive; K [14]: 0.03 min⁻¹; Activity [15]: > 80%; TIME [16]: 0.5 h; Activity [17]: > 80%; Activity [18]: inactive; IC50 [19]: 8.64 nM; Activity [20]: > 80%; inhibition [21]: inactive; Activity [23]: > 80%; Activity [25]: 65%; K [26]: 0.013 min⁻¹; inhibition at 0.016 µM [27]: 85%
C[C@@H]1NC(=O)CNC(=O)[C@@H]2CSSC[C@@H]3NC(=O)[C@H](CSSC[C@H](NC(=O)[C@H](C)NC(=O)[C@@H]4CCCN4C(=O)[C@H](Cc4c[nH]cn4)NC3=O)C(=O)NCC(=O)N[C@@H](CCCCN)C(=O)N[C@@H](Cc3c[nH]cn3)C(=O)N[C@@H](Cc3ccccc3)C(=O)N[C@@H](CO)C(=O)N2)NC(=O)[C@H](CCCNC(=N)N)NC(=O)CNC(=O)[C@H](CC(N)=O)NC(=O)CNC(=O)[C@H](C)NC1=O (cyclo(AAGNGRCCHPACGKHFSCG); disulfide 7-12, 8-18)	> 8	inactive	Dose-dependent effect	25.2	16.5	8.64	21.3	0.066	76200	–
C[C@@H]1NC(=O)[C@@H]2CSSC[C@@H]3NC(=O)[C@H](CSSC[C@H](NC(=O)[C@H](C)NC(=O)[C@@H]4CCCN4C(=O)[C@H](Cc4c[nH]cn4)NC3=O)C(=O)NCC(=O)N[C@@H](CCCCN)C(=O)N[C@@H](Cc3c[nH]cn3)C(=O)N[C@@H](Cc3ccccc3)C(=O)N[C@@H](CO)C(=O)N2)NC(=O)[C@H](CCCNC(=N)N)NC(=O)CNC(=O)[C@H](CC(N)=O)NC(=O)CNC1=O (cyclo(ACGKHFSCAGNGRCCHP); disulfide 2-14, 8-15)	7.33	inactive	Dose-dependent effect	99.8	13.5	7.54	10.3	0.126	12100	–
